According to paper PMC5218480 (PLoS ONE, 2017):

System: MV-4-11 cells
Test: Gene expression microarray analysis (Affymetrix PrimeView) and GSEA
Assay type: cell-based, human
Design: RFU PODN (11730768_x_at) / Fold change /veh PODN (11730768_x_at) / RFU LINC00158 (11744669_a_at) / Fold change /veh LINC00158 (11744669_a_at) / RFU DUSP10 (11751237_a_at) / Fold change /veh DUSP10 (11751237_a_at) / RFU ID3 (11757404_x_at) / Fold change /veh ID3 (11757404_x_at) / RFU PLEKHG5 (11737974_s_at) / Fold change /veh PLEKHG5 (11737974_s_at) / RFU LRRC4B (11730491_at) / Fold change /veh LRRC4B (11730491_at) / RFU GIMAP4 (11747438_a_at) / Fold change /veh GIMAP4 (11747438_a_at) / RFU KRT8 (11758183_x_at) / Fold change /veh KRT8 (11758183_x_at) / RFU CNN1 (11734310_a_at) / Fold change /veh CNN1 (11734310_a_at) / RFU VPS37D (11726825_at) / Fold change /veh VPS37D (11726825_at) / RFU C10orf10 (11716522_x_at) / Fold change /veh C10orf10 (11716522_x_at) / RFU KIR2DL2 /// KIR2DL4 /// KIR2DL5A /// KIR2DL5B /// KIR2DS1 /// KIR2DS2 /// KIR2DS3 /// KIR2DS4 /// KIR3DL3 /// KIR3DL3 /// KIR3DS1 (11738374_at) / Fold change /veh KIR2DL2 /// KIR2DL4 /// KIR2DL5A /// KIR2DL5B /// KIR2DS1 /// KIR2DS2 /// KIR2DS3 /// KIR2DS4 /// KIR3DL3 /// KIR3DL3 /// KIR3DS1 (11738374_at) / RFU C1QL1 (11718748_at) / Fold change /veh C1QL1 (11718748_at) / RFU TMPRSS4 (11747572_a_at) / Fold change /veh TMPRSS4 (11747572_a_at) / RFU HAMP (11756126_x_at) / Fold change /veh HAMP (11756126_x_at) / RFU RNFT2 (11725882_a_at) / Fold change /veh RNFT2 (11725882_a_at) / RFU NR4A2 (11747474_a_at) / Fold change /veh NR4A2 (11747474_a_at) / RFU ABCC12 (11746883_a_at) / Fold change /veh ABCC12 (11746883_a_at) / RFU TMEM136 (11760407_x_at) / Fold change /veh TMEM136 (11760407_x_at) / RFU CLDN22 /// WWC2 (11732394_at) / Fold change /veh CLDN22 /// WWC2 (11732394_at) / RFU HLA-DPB1 (11760878_x_at) / Fold change /veh HLA-DPB1 (11760878_x_at) / RFU SPINT1 (11716480_a_at) / Fold change /veh SPINT1 (11716480_a_at) / RFU GAP43 (11754022_s_at) / Fold change /veh GAP43 (11754022_s_at) / RFU A4GNT (11735810_at) / Fold change /veh A4GNT (11735810_at) / RFU PRB3 (11715151_x_at) / Fold change /veh PRB3 (11715151_x_at) / RFU TUBB4B (11761932_at) / Fold change /veh TUBB4B (11761932_at) / RFU CAPN14 (11732068_a_at) / Fold change /veh CAPN14 (11732068_a_at) / RFU TMCC2 (11721928_a_at) / Fold change /veh TMCC2 (11721928_a_at) / RFU IRGQ (11745062_a_at) / Fold change /veh IRGQ (11745062_a_at) / RFU FAM174B (11720279_a_at) / Fold change /veh FAM174B (11720279_a_at) / RFU TMPRSS4 (11748680_a_at) / Fold change /veh TMPRSS4 (11748680_a_at) / RFU FAM212B (11763350_a_at) / Fold change /veh FAM212B (11763350_a_at) / RFU PLEKHG5 (11743358_a_at) / Fold change /veh PLEKHG5 (11743358_a_at) / RFU ZSCAN30 (11745921_a_at) / Fold change /veh ZSCAN30 (11745921_a_at) / RFU CMKLR1 (11741424_a_at) / Fold change /veh CMKLR1 (11741424_a_at) / RFU LOC101060620 /// MAPK8IP1 (11723275_at) / Fold change /veh LOC101060620 /// MAPK8IP1 (11723275_at) / RFU SPTSSB (11747773_x_at) / Fold change /veh SPTSSB (11747773_x_at) / RFU PRSS12 (11739890_at) / Fold change /veh PRSS12 (11739890_at) / RFU BIN1 (11741810_x_at) / Fold change /veh BIN1 (11741810_x_at) / RFU WNT11 (11732464_a_at) / Fold change /veh WNT11 (11732464_a_at) / RFU C10orf10 (11716521_a_at) / Fold change /veh C10orf10 (11716521_a_at) / RFU C5orf56 (11738089_at) / Fold change /veh C5orf56 (11738089_at) / RFU CYB561 (11721691_x_at) / Fold change /veh CYB561 (11721691_x_at) / RFU ANKRD19P (11752326_a_at) / Fold change /veh ANKRD19P (11752326_a_at) / RFU OR2T12 /// OR2T33 /// OR2T8 (11738714_s_at) / Fold change /veh OR2T12 /// OR2T33 /// OR2T8 (11738714_s_at) / RFU VCAN (11748164_a_at) / Fold change /veh VCAN (11748164_a_at) / RFU JSRP1 (11732532_at) / Fold change /veh JSRP1 (11732532_at) / RFU KRTAP10-11 (11738290_x_at) / Fold change /veh KRTAP10-11 (11738290_x_at) / RFU MYO3A (11730013_a_at) / Fold change /veh MYO3A (11730013_a_at) / RFU EBF3 (11725865_a_at) / Fold change /veh EBF3 (11725865_a_at) / RFU CAMK2N1 (11719241_x_at) / Fold change /veh CAMK2N1 (11719241_x_at) / RFU C5orf56 (11738088_a_at) / Fold change /veh C5orf56 (11738088_a_at) / RFU OLFML3 (11715873_a_at) / Fold change /veh OLFML3 (11715873_a_at) / RFU LOC100653217 /// NTM (11731650_a_at) / Fold change /veh LOC100653217 /// NTM (11731650_a_at) / RFU MAPK11 (11762145_a_at) / Fold change /veh MAPK11 (11762145_a_at) / RFU FIZ1 (11724087_x_at) / Fold change /veh FIZ1 (11724087_x_at) / RFU OASL (11726364_x_at) / Fold change /veh OASL (11726364_x_at) / RFU SOX15 (11748057_x_at) / Fold change /veh SOX15 (11748057_x_at) / RFU CD79A (11719716_a_at) / Fold change /veh CD79A (11719716_a_at) / RFU HIST1H1D (11736915_at) / Fold change /veh HIST1H1D (11736915_at) / RFU CASKIN2 (11723855_a_at) / Fold change /veh CASKIN2 (11723855_a_at) / RFU LOC730098 (11760151_x_at) / Fold change /veh LOC730098 (11760151_x_at) / RFU OR4N2 (11742367_at) / Fold change /veh OR4N2 (11742367_at) / RFU PRRT2 (11749266_a_at) / Fold change /veh PRRT2 (11749266_a_at) / RFU SNX32 (11753110_a_at) / Fold change /veh SNX32 (11753110_a_at) / RFU CDHR5 (11726645_a_at) / Fold change /veh CDHR5 (11726645_a_at) / RFU RCAN1 (11760418_a_at) / Fold change /veh RCAN1 (11760418_a_at) / RFU FAM167A (11723789_a_at) / Fold change /veh FAM167A (11723789_a_at) / RFU FAM26E (11764081_at) / Fold change /veh FAM26E (11764081_at) / RFU ISYNA1 (11749810_s_at) / Fold change /veh ISYNA1 (11749810_s_at) / RFU ACY1 (11761880_at) / Fold change /veh ACY1 (11761880_at) / RFU 11764098_at / Fold change /veh 11764098_at / RFU SAMD14 (11745864_x_at) / Fold change /veh SAMD14 (11745864_x_at) / RFU NPB (11741838_a_at) / Fold change /veh NPB (11741838_a_at) / RFU TMPRSS6 (11731388_a_at) / Fold change /veh TMPRSS6 (11731388_a_at) / RFU KRTAP10-2 (11738614_at) / Fold change /veh KRTAP10-2 (11738614_at) / RFU ARHGAP8 /// PRR5-ARHGAP8 (11727945_x_at) / Fold change /veh ARHGAP8 /// PRR5-ARHGAP8 (11727945_x_at) / RFU KRTAP5-7 /// NADSYN1 (11734609_at) / Fold change /veh KRTAP5-7 /// NADSYN1 (11734609_at) / RFU RASL12 (11751679_a_at) / Fold change /veh RASL12 (11751679_a_at) / RFU CDKN2B (11736163_a_at) / Fold change /veh CDKN2B (11736163_a_at) / RFU PRF1 (11729649_at) / Fold change /veh PRF1 (11729649_at) / RFU, ZNF638 /// ZNF638-IT1 / Fold change vs veh, ZNF638 /// ZNF638-IT1 / RFU, PANK3 / Fold change vs veh, PANK3 / RFU, SH3YL1 / Fold change vs veh, SH3YL1 / RFU, ZEB2 / Fold change vs veh, ZEB2 / RFU, NRIP1 / Fold change vs veh, NRIP1 / RFU, PTTG1IP / Fold change vs veh, PTTG1IP / RFU, CAPN2 / Fold change vs veh, CAPN2 / RFU, MED14 / Fold change vs veh, MED14 / RFU, SNORA58 / Fold change vs veh, SNORA58 / RFU, C1orf63 / Fold change vs veh, C1orf63 / RFU, LRRFIP1 / Fold change vs veh, LRRFIP1 / RFU, NDUFAF7 / Fold change vs veh, NDUFAF7 / RFU, SLC12A2 / Fold change vs veh, SLC12A2 / RFU, IBTK / Fold change vs veh, IBTK / RFU, ESF1 / Fold change vs veh, ESF1 / Fold change vs veh, TMEM50B / RFU, TAOK1 / Fold change vs veh, TAOK1 / RFU, ACBD3 / Fold change vs veh, ACBD3 / RFU, TMA16 / Fold change vs veh, TMA16 / RFU, RWDD3 / Fold change vs veh, RWDD3 / RFU, BCAT1 / Fold change vs veh, BCAT1 / RFU, EDEM3 / Fold change vs veh, EDEM3 / RFU, TMEM33 / Fold change vs veh, TMEM33 / RFU, WDR75 / Fold change vs veh, WDR75 / RFU, AHCTF1 / Fold change vs veh, AHCTF1 / RFU, TFRC / Fold change vs veh, TFRC / RFU, ZDHHC17 / Fold change vs veh, ZDHHC17 / RFU, NOM1 / Fold change vs veh, NOM1 / RFU, ARL8B / Fold change vs veh, ARL8B / RFU, ZBTB11 / Fold change vs veh, ZBTB11 / RFU, TAMM41 / Fold change vs veh, TAMM41 / RFU, KIAA1704 /// LOC100996395 / Fold change vs veh, KIAA1704 /// LOC100996395 / RFU, ING1 / Fold change vs veh, ING1 / RFU, TRMT61B / Fold change vs veh, TRMT61B / RFU, FUBP3 / Fold change vs veh, FUBP3 / RFU, TP53 / Fold change vs veh, TP53 / RFU, TNKS2 / Fold change vs veh, TNKS2 / RFU, ZFP14 / Fold change vs veh, ZFP14 / RFU, ACTR2 / Fold change vs veh, ACTR2 / RFU, PPP3R1 / Fold change vs veh, PPP3R1 / RFU, PIK3R1 / Fold change vs veh, PIK3R1 / RFU, HNRNPA1 / Fold change vs veh, HNRNPA1 / RFU, RNF170 / Fold change vs veh, RNF170 / RFU, ZNF28 / Fold change vs veh, ZNF28 / RFU, RNGTT / Fold change vs veh, RNGTT / RFU, OGT / Fold change vs veh, OGT / RFU, BRD1 / Fold change vs veh, BRD1 / RFU, MARS / Fold change vs veh, MARS / RFU, ZNF655 / Fold change vs veh, ZNF655 / RFU, FAHD1 / Fold change vs veh, FAHD1 / RFU, BDP1 / Fold change vs veh, BDP1 / RFU, LRRCC1 / Fold change vs veh, LRRCC1 / RFU, ARID1A / Fold change vs veh, ARID1A / RFU, ZNF146 / Fold change vs veh, ZNF146 / RFU, ZNF330 / Fold change vs veh, ZNF330 / RFU, GPN3 / Fold change vs veh, GPN3 / RFU, C9orf123 / Fold change vs veh, C9orf123 / RFU, N4BP2L2 / Fold change vs veh, N4BP2L2 / RFU, ARFIP1 / Fold change vs veh, ARFIP1 / RFU, FAM179B / Fold change vs veh, FAM179B / RFU, BCL10 / Fold change vs veh, BCL10 / RFU, UHRF1BP1L / Fold change vs veh, UHRF1BP1L / RFU, BET1 / Fold change vs veh, BET1 / RFU, CNOT2 / Fold change vs veh, CNOT2 / RFU, ZNF268 / Fold change vs veh, ZNF268 / Fold change vs veh, ZNF507 / RFU, DGCR2 / Fold change vs veh, DGCR2 / RFU, WDSUB1 / Fold change vs veh, WDSUB1 / Fold change vs veh, HSP90B1 /// MIR3652 / RFU, ADSS / Fold change vs veh, ADSS / RFU, GK / Fold change vs veh, GK / RFU, ZNF148 / Fold change vs veh, ZNF148 / RFU, TAF9 / Fold change vs veh, TAF9 / RFU, SLC1A5 / Fold change vs veh, SLC1A5 / RFU, SLMO2 / Fold change vs veh, SLMO2 / RFU, ABCC4 / Fold change vs veh, ABCC4 / RFU, LOC101060439 /// RAP1B / Fold change vs veh, LOC101060439 /// RAP1B / RFU, RFX7 / Fold change vs veh, RFX7 / RFU, GTPBP10 / Fold change vs veh, GTPBP10 / RFU, CNEP1R1 / Fold change vs veh, CNEP1R1 / RFU, BIVM-ERCC5 /// ERCC5 / Fold change vs veh, BIVM-ERCC5 /// ERCC5 / RFU, ILF3 / Fold change vs veh, ILF3 / RFU 11762660_at / Fold change /veh 11762660_at / RFU VCAN (11757783_s_at) / Fold change /veh VCAN (11757783_s_at) / RFU DDX43 (11728927_at) / Fold change /veh DDX43 (11728927_at) / RFU KRT8 (11758188_x_at) / Fold change /veh KRT8 (11758188_x_at) / RFU NKD1 (11759106_at) / Fold change /veh NKD1 (11759106_at) / RFU SRD5A1 (11742802_a_at) / Fold change /veh SRD5A1 (11742802_a_at) / RFU TPSAB1 /// TPSB2 (11721975_s_at) / Fold change /veh TPSAB1 /// TPSB2 (11721975_s_at) / RFU GSTM3 (11746129_a_at) / Fold change /veh GSTM3 (11746129_a_at) / RFU IL23R (11737362_x_at) / Fold change /veh IL23R (11737362_x_at) / RFU TMEM51 (11727254_a_at) / Fold change /veh TMEM51 (11727254_a_at) / RFU PIWIL2 (11732686_x_at) / Fold change /veh PIWIL2 (11732686_x_at) / RFU ORM1 (11744905_x_at) / Fold change /veh ORM1 (11744905_x_at) / RFU CCDC152 (11743942_at) / Fold change /veh CCDC152 (11743942_at) / RFU ECM1 (11717891_a_at) / Fold change /veh ECM1 (11717891_a_at) / RFU IL23R (11748794_a_at) / Fold change /veh IL23R (11748794_a_at) / RFU TNFAIP8L3 (11732012_x_at) / Fold change /veh TNFAIP8L3 (11732012_x_at) / RFU MBOAT4 (11741988_at) / Fold change /veh MBOAT4 (11741988_at) / RFU 11764193_at / Fold change /veh 11764193_at / RFU TMEM53 (11763286_at) / Fold change /veh TMEM53 (11763286_at) / RFU MAGEB2 (11727129_at) / Fold change /veh MAGEB2 (11727129_at) / RFU TMEM200A (11744735_a_at) / Fold change /veh TMEM200A (11744735_a_at) / RFU CCDC152 (11751479_a_at) / Fold change /veh CCDC152 (11751479_a_at) / RFU FAM211A (11726209_a_at) / Fold change /veh FAM211A (11726209_a_at) / RFU RGS16 (11746705_a_at) / Fold change /veh RGS16 (11746705_a_at) / RFU VCAN (11755009_s_at) / Fold change /veh VCAN (11755009_s_at) / RFU RHOB (11743442_s_at) / Fold change /veh RHOB (11743442_s_at) / RFU RGS16 (11720943_a_at) / Fold change /veh RGS16 (11720943_a_at) / RFU RGS16 (11720944_at) / Fold change /veh RGS16 (11720944_at) / RFU, VPS4B / Fold change vs veh, VPS4B / RFU, CREB1 / Fold change vs veh, CREB1 / RFU, DNAJC13 / Fold change vs veh, DNAJC13 / RFU, GNAQ / Fold change vs veh, GNAQ / RFU, CDK5R1 / Fold change vs veh, CDK5R1 / RFU, ZRANB3 / Fold change vs veh, ZRANB3 / RFU, CUL4A / Fold change vs veh, CUL4A / RFU, CCNY / Fold change vs veh, CCNY / RFU, UFL1 / Fold change vs veh, UFL1 / RFU, COG3 / Fold change vs veh, COG3 / RFU, DIAPH2 / Fold change vs veh, DIAPH2 / RFU, SKA2 / Fold change vs veh, SKA2 / RFU, AFF3 / Fold change vs veh, AFF3 / RFU, LMF1 / Fold change vs veh, LMF1 / RFU, IPO11 / Fold change vs veh, IPO11 / RFU, DFFB / Fold change vs veh, DFFB / RFU, FOXP1 / Fold change vs veh, FOXP1 / RFU, CARD8 / Fold change vs veh, CARD8 / RFU, STRN3 / Fold change vs veh, STRN3 / RFU, ADK / Fold change vs veh, ADK / RFU, RASSF2 / Fold change vs veh, RASSF2 / RFU, WIPF1 / Fold change vs veh, WIPF1 / RFU, LARP1B / Fold change vs veh, LARP1B / RFU, RASA1 / Fold change vs veh, RASA1 / RFU, RB1 / Fold change vs veh, RB1 / RFU, PPFIA1 / Fold change vs veh, PPFIA1 / RFU, MAT2A / Fold change vs veh, MAT2A / RFU, CCT5 / Fold change vs veh, CCT5 / RFU, WDR92 / Fold change vs veh, WDR92 / RFU, CUX1 / Fold change vs veh, CUX1 / RFU, TTC7A / Fold change vs veh, TTC7A / RFU, TMEM135 / Fold change vs veh, TMEM135 / RFU, DEPTOR / Fold change vs veh, DEPTOR / RFU, CPM / Fold change vs veh, CPM / RFU, DNAJB6 / Fold change vs veh, DNAJB6 / RFU, CACNA2D3 / Fold change vs veh, CACNA2D3 / RFU, DTX4 / Fold change vs veh, DTX4 / RFU, TFCP2 / Fold change vs veh, TFCP2 / RFU, GMCL1 /// GMCL1P1 / Fold change vs veh, GMCL1 /// GMCL1P1 / RFU, AEBP2 / Fold change vs veh, AEBP2 / RFU, SNHG1 /// SNORD22 /// SNORD25 /// SNORD26 /// SNORD27 /// SNORD28 /// SNORD29 /// SNORD31 / Fold change vs veh, SNHG1 /// SNORD22 /// SNORD25 /// SNORD26 /// SNORD27 /// SNORD28 /// SNORD29 /// SNORD31 / Fold change (Aza/veh), C12orf56 (ProbeSet 11735607_a_at) / Fold change (ACY-1035/veh), C12orf56 (ProbeSet 11735607_a_at) / Fold change (Aza/veh), FGFR1OP (ProbeSet 11751329_s_at) / Fold change (ACY-1035/veh), FGFR1OP (ProbeSet 11751329_s_at) / Fold change (Aza/veh), VPS36 (ProbeSet 11739960_a_at) / Fold change (ACY-1035/veh), VPS36 (ProbeSet 11739960_a_at) / RFU SYPL1 (11715823_x_at) / Fold change /veh SYPL1 (11715823_x_at) / RFU IGFBP7 (11715501_s_at) / Fold change /veh IGFBP7 (11715501_s_at) / RFU REEP3 (11722064_at) / Fold change /veh REEP3 (11722064_at) / RFU IGLL1 (11728026_x_at) / Fold change /veh IGLL1 (11728026_x_at): dose or concentration left out as unconfirmed
Details: MV-4-11 cells, 48 hours

Nc1ccc(-c2cccs2)cc1NC(=O)c1ccc2c(c1)cc(C1CC1)n2CCN1CCOCC1 [ACY-1035]
Fold change /veh ORM1 (11744905_x_at): 1.11
